Structures can show the parent of a compound that is named as a salt.
Experiments:
Glucose oxidase (GOD) = biological target: T1, Glucose oxidase (GOD) (Aspergillus niger, UniProt P13006); experiment: Electron transfer activity 1: GOD-glucose-compound, current at +300 mV; assay type: biochemical; conditions: +300 mV vs Ag/AgCl, pH 6.0
T1 construct: purchased Boehringer-Mannheim
Experimental: Measurement of electron transfer activities of TEPD, TCPD, THEPD, TDHPD, HTEPD, N,N'-BHPD, N,N-BHDPD, N,N'-BHDPD, and p-phenylenediamine derivatives having substituted amino group by reacting p-phenylenediamine with propyleneoxide--1
Glucose oxidase (GOD, manufactured by Boehringer-Mannheim) was dissolved in 0.1M phosphate buffer (pH 6.0) containing 0.1M NaCl to prepare 0M and 4.0×10^-4 M GOD solutions. Also, glucose (manufactured by Junsei Kagaku) was dissolved in the same buffer to prepare a 1.5M solution. In the same manner, each of the TEPD, TCPD, THEPD, TDHPD, HTEPD, N,N-BHDPD, N,N'-BHPD, N,N'-BHDPD, and p-phenylenediamine derivatives having substituted amino group by reacting p-phenylenediamine with propyleneoxide obtained in Synthesis Examples 1 to 9 was dissolved in the same buffer to prepare a 5.0×10^-3 M solution.
Each of these solutions was mixed in 0.1M phosphate buffer (pH 6.0) containing 0.1M NaCl in the following mixing ratio just before the measurement to prepare solutions of the following compositions A and B, and current was measured continuously in the presence (composition A) or absence (composition B) of GOD.
Using the same apparatus of Test Example 2, electric current was measured in the presence (composition A) or absence (composition B) of GOD for 10 minutes under application of potential of +300 mV (vs Ag/AgCl) to the working electrode.

[1] = Measurement of vapor pressures (gas flow method); assay type: physicochemical; conditions: for vapor pressure lower than that of TEPD / vapor pressure: at 25° C.; for vapor pressure: gas flow method; for property in drying (freeze-drying, vacuum drying, air-drying) and stability of dried states: compared with PPD, TMPD and TEPD, concluded from vapor pressures
Experimental: Measurement of vapor pressures of p-phenylenediamine(PPD), N,N,N',N'-tetramethyl-p-phenylenediamine (TMPD), TEPD, TCPD, THEPD and TDHPD
The PPD(manufactured by Wakoh Junyaku K.K), TMPD (manufactured by Tokyo Kasei K.K), further, TEPD, TCPD, THEPD and TDHPO obtained in the course of the procedures of Synthesis Examples 1 to 4 were checked for their vapor pressures.
Vapor densities (amount of evaporation/volume) of the solid samples (PPD, TMPD, TEPD, TCPD, THEPD and TDHPD) were measured by contacting each sample heated to a predetermined temperature with a stream of carrier gas (nitrogen) and saturating the sample with vapor, and vapor pressures of TEPD and THEPD were calculated from the data on an assumption that the vapor follows the law of ideal gas (gas flow method). The vapor density was calculated by measuring evaporation rate (loss rate) of each sample using an electric balance, and the carrier gas flow rate using a flow meter.
The vapor pressure was calculated from the vapor density based on the following formula.
In the above formula, P represents vapor pressure (mmHg), k represents evaporation rate (mg/min), v represents carrier gas flow rate (ml/min), k/v represents vapor density (mg/ml), M represents molecular weight of each sample, π represents pressure of the system (mmHg) and V represents molar volume of carrier gas (l/mol).

[2] = biological target: T2, Horseradish peroxidase (HRPO) (Armoracia rusticana, UniProt P00433); experiment: Electron transfer activity 2: HRPO-hydrogen peroxide-compound, current at -80 mV or -150 mV; assay type: biochemical; conditions: -80 mV or -150 mV vs Ag/AgCl, pH 6.0
T2 construct: purchased TOYOBO
T2 sequence (P00433 31-338 limits assumed): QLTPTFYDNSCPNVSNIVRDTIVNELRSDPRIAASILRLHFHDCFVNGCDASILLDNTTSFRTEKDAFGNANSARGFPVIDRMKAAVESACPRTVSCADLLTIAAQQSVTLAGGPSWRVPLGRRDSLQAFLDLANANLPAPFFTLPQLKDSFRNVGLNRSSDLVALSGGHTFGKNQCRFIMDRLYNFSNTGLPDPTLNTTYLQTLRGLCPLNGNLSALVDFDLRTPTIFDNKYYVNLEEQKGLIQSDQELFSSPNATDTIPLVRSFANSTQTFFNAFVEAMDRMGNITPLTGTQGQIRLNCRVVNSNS
Experimental: Measurement of electron transfer activities of TCPD, THEPD, TDHPD, HTEPD, N,N-BHDPD, N,N'-BHPD, N,N'-BHDPD, and p-phenylenediamine derivatives having substituted amino group by reacting p-phenylenediamine with propyleneoxide--2
Horseradish peroxidase (HRPO, manufactured by TOYOBO) was dissolved in 0.1M phosphate buffer (pH 6.0) containing 0.1M NaCl to prepare 0M and 5.0×10^-7 M HRPO solutions. Also, hydrogen peroxide (manufactured by Wako Pure Chemical Industries) was dissolved in the same buffer to prepare a 1.0×10^-1 M solution. In the same manner, each of the TCPD, THEPD, TDHPD, HTEPD, N,N-BHDPD, N,N'-BHPD, N,N'-BHDPD, and p-phenylenediamine derivatives having substituted amino group by reacting p-phenylenediamine with propyleneoxide obtained in Synthesis Examples 1 to 9 was dissolved in the same buffer to prepare a 5.0×10^-3 M solution.
Each of these solutions was mixed in 0.1M phosphate buffer (pH 6.0) containing 0.1M NaCl in the following mixing ratio just before the measurement to prepare solutions of the following compositions A and B, and electric current was measured continuously in the presence (composition A) or absence (composition B) of HRPO.
Using the same apparatus of Test Example 2, electric current was measured in the presence (composition A) or absence (composition B) of HRPO for 5 or 10 minutes after application of potential of -80 mV (vs Ag/AgCl, the same shall apply hereinafter) in the case of TEPD, THEPD, and TDHPD, or -150 mV in the case of TCPD, HTEPD, N,N-BHDPD, N,N'-BHPD, N,N'-BHDPD, and p-phenylenediamine derivatives having substituted amino group by reacting p-phenylenediamine with propyleneoxide.

[3] = Dry chemistry type chips: filter paper impregnated with mediator solution and dried on an electrode; conditions: mediator dried on cellulose or glass filter paper, dissolved by liquid sample
Source text: In addition, the present inventors have attempted to prepare a dry chemistry type chips by impregnating a piece of cellulose filter paper or glass filter paper with a solution of HQ, PPD, TMPD or TEPD and drying the resulting piece on an electrode (by freeze-drying, vacuum drying, air-drying or the like) or arranging it on an electrode after drying so that the impregnated electron mediator can dissolve in a liquid sample at the time of measurement.

[4] = Current response of electron mediators in buffer solution and in the presence of blood, urine; conditions: for current response: in a buffer solution; for response in the presence of blood, urine and the like: interfering substances in blood
Source text: (§1) Of these oxidation-reduction enzymes, glucose oxidase (GOD) is used in enzyme electrodes for the measurement of blood glucose level and horseradish peroxidase (HRPO) is used as a label enzyme in specific binding assays such as DNA hybridization, immunoassay and the like. […] However, these electron mediators were not able to show stable and reproducible response in the presence of blood, urine and the like because of the interfering substances contained therein.

horseradish peroxidase = biological target: T3, horseradish peroxidase (Armoracia rusticana, UniProt P00433); experiment: Current response in a buffer with electron mediator (inventors' experiments); assay type: biochemical; conditions: compared with conventional electron mediators (ferrocene derivatives, inorganic ions, metal complexes)
T3 sequence (P00433 31-338 limits assumed): T2 sequence (P00433 31-338 limits assumed)
Source text: as §1

glucose oxidase = glucose oxidase (Aspergillus niger, UniProt P13006); experiment: as above; assay type: biochemical; conditions: compared with conventional electron mediators (ferrocene derivatives, inorganic ions, metal complexes)
Chain of glucose oxidase (P13006 17-605): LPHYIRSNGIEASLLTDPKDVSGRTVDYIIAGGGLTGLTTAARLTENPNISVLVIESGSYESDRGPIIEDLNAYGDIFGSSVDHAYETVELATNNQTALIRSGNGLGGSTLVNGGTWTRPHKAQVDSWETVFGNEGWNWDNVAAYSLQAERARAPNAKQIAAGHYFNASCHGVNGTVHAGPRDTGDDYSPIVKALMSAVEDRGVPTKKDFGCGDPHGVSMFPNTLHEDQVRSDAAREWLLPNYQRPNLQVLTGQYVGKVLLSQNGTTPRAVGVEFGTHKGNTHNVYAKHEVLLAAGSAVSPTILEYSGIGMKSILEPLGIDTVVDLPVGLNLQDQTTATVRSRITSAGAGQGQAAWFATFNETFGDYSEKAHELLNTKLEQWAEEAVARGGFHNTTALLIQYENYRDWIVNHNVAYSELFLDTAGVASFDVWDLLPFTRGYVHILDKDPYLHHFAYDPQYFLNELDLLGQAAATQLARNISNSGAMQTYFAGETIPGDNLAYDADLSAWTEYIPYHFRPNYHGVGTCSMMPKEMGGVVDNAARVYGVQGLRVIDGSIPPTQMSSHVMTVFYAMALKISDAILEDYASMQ
Source text: as §1

T1 sequence (P13006 17-605): as above

Molecule	function as electron mediator between GOD and the electrode (Glucose oxidase (GOD))	function as electron mediator between HRPO and the electrode [2]	current response and characteristics of dry chemistry type chips [3]	other results
Cl.Cl.OCC(O)CN(CC(O)CO)c1ccc(N(CC(O)CO)CC(O)CO)cc1 (stereo not drawn) [TDHPD, N,N,N',N'-tetrakis-(2',3'-dihydroxypropyl)-p-phenylenediamine dihydrochloride]	function as a reversible electron mediator between GOD and the electrode	function as a reversible electron mediator between HRPO and the electrode		vapor pressure lower than that of TEPD [1]: about 420,000 times; vapor pressure [1]: 1.0×10^-9 mmHg; property in drying (freeze-drying, vacuum drying, air-drying) and stability of dried states [1]: superior to those of PPD, TMPD and TEPD
Oc1ccc(O)cc1 [HQ, hydroquinone]			low current response and extremely poor characteristics	
CN(C)c1ccc(N(C)C)cc1 [TMPD, N,N,N',N'-tetramethyl-p-phenylenediamine]			low current response and extremely poor characteristics	current response [4]: excellent current response; response in the presence of blood, urine and the like [4]: interference
hydroquinone (HQ)/benzoquinone (BQ)				current response (horseradish peroxidase): superior current response; current response (glucose oxidase): superior current response
Nc1ccc(N)cc1 [PPD, p-phenylenediamine]			low current response and extremely poor characteristics	current response [4]: excellent current response; response in the presence of blood, urine and the like [4]: interference
CCN(CC)c1ccc(N(CCO)CCO)cc1.Cl.Cl [N,N-BHDPD, N,N-bis-(2'-hydroxyethyl)-N',N'-diethyl-p-phenylenediamine dihydrochloride]	function as a reversible electron mediator between GOD and the electrode	function as a reversible electron mediator between HRPO and the electrode		
O=C(O)CN(CC(=O)O)c1ccc(N(CC(=O)O)CC(=O)O)cc1 [TCPD, N,N,N',N'-tetrakiscarboxymethyl-p-phenylenediamine]	function as a reversible electron mediator between GOD and the electrode	function as a reversible electron mediator between HRPO and the electrode		vapor pressure lower than that of TEPD [1]: about 50,000 times; vapor pressure [1]: 8.7×10^-9 mmHg; property in drying (freeze-drying, vacuum drying, air-drying) and stability of dried states [1]: superior to those of PPD, TMPD and TEPD
CCN(CCO)c1ccc(N(CC)CCO)cc1.Cl.Cl [N,N'-BHDPD, N,N'-bis-(2'-hydroxyethyl)-N,N'-diethyl-p-phenylenediamine dihydrochloride]	function as a reversible electron mediator between GOD and the electrode	function as a reversible electron mediator between HRPO and the electrode		
CCN(CC)c1ccc(N(CC)CCO)cc1 [HTEPD, N-2'-hydroxyethyl-,N,N',N'-triethyl-p-phenylenediamine dihydrochloride]	function as a reversible electron mediator between GOD and the electrode	function as a reversible electron mediator between HRPO and the electrode		
OCCNc1ccc(NCCO)cc1 [N,N'-BHPD, N,N'-bis-(2'-hydroxyethyl)-p-phenylenediamine]	function as a reversible electron mediator between GOD and the electrode	function as a reversible electron mediator between HRPO and the electrode		
